Several values for one entry are separate records, joined by “and”; a condition that tells them apart may be missing. Identical values can stand only once. Toxic doses and inconclusive results are not listed. Where a SMILES comes first, the peptide text is derived from it. [ ]: non-standard residue; d: D form. The star is where a group is joined. Cbz = O=C(OCc1ccccc1)*; Nva = CCC[CH](N)C(=O)O

The subject of this experiment is B6C3F1 mice, B16 melanoma ip, median survival T/C. The experiment in a line: NCI In Vivo Anticancer Drug Screen. Data for tumor model B16 Melanoma (intraperitoneal) in B6C3F1 mice. Particulars: endpoint: median survival time, schedule: Q01DX009 (ip), higher = longer survival. A digest of the protocol: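 Mice bearing transplanted tumor were dosed with compound or vehicle, and survival was recorded. Activity is expressed as the treated-group measurement (T) divided by the vehicle control measurement (C).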

[1] abbreviates: dose: 50.0 mg/kg/injection, vehicle: saline with Tween-80.
The mark [2] stands for this setting: dose: 100.0 mg/kg/injection, vehicle: saline with Tween-80.
[3] abbreviates: dose: 0.78 mg/kg/injection, vehicle: saline with Tween-80.
[4] abbreviates: dose: 1.56 mg/kg/injection, vehicle: saline with Tween-80.
[5] abbreviates: dose: 6.25 mg/kg/injection, vehicle: saline with Tween-80.
[6] abbreviates: dose: 12.5 mg/kg/injection, vehicle: saline with Tween-80.
[7] abbreviates: dose: 100.0 mg/kg/injection, vehicle: Klucel (hydroxypropylcellulose) (HPC).
The mark [8] stands for this setting: dose: 200.0 mg/kg/injection, vehicle: Klucel (hydroxypropylcellulose) (HPC).
Setting [9] is: dose: 25.0 mg/kg/injection, vehicle: saline with Tween-80.
The mark [10] stands for this setting: dose: 20.0 mg/kg/injection, vehicle: saline with Tween-80.
Setting [11] is: dose: 25.0 mg/kg/injection, vehicle: Klucel (hydroxypropylcellulose) (HPC).
Setting [12] is: dose: 50.0 mg/kg/injection, vehicle: Klucel (hydroxypropylcellulose) (HPC).
The mark [13] stands for this setting: dose: 0.75 mg/kg/injection, vehicle: water.
Setting [14] is: dose: 1.5 mg/kg/injection, vehicle: water.
Setting [15] is: dose: 3.0 mg/kg/injection, vehicle: water.
Where [16] appears, read: dose: 6.0 mg/kg/injection, vehicle: water.
[17] abbreviates: dose: 200.0 mg/kg/injection, vehicle: saline with Tween-80.
Setting [18] is: dose: 1.25 mg/kg/injection, vehicle: saline with Tween-80.
The mark [19] stands for this setting: dose: 2.5 mg/kg/injection, vehicle: saline with Tween-80.
The mark [20] stands for this setting: dose: 5.0 mg/kg/injection, vehicle: saline with Tween-80.
Where [21] appears, read: dose: 10.0 mg/kg/injection, vehicle: saline with Tween-80.

Turning to `Sc1ccccc1-n1c(-c2ccccc2)ccc1-c1ccccc1`, the T/C by setting is: under setting [1], 104 % of control; under setting [2], 87 % of control.

Take `C=CC(=O)N1CN(C(=O)C=C)CN(C(=O)C=C)C1`: the T/C is, setting by setting: under setting [3], 99 % of control; under setting [4], 100 % of control; (dose: 3.12 mg/kg/injection, vehicle: saline with Tween-80) 100 % of control; under setting [5], 106 % of control; under setting [6], 86 % of control.

In the case of `O=C(CCl)NC(Cc1ccc(O)cc1)C(=O)O` (centres undefined), the T/C is 93 % of control under setting [1] and 87 % of control under setting [2].

On to `CC(C)(C)OC(=O)NC(CSCc1ccccc1)C(=O)ON1C(=O)CCC1=O` (centres undefined), for which the T/C by setting is: under setting [7], 94 % of control; under setting [8], 100 % of control.

Regarding `Nc1ccc2cc(S(=O)(=O)O)cc(O)c2c1N=Nc1ccc(F)cc1`, the T/C was 95 % of control under setting [9], 98 % of control under setting [1] and 90 % of control under setting [2].

Consider `[Cl][Pt+2][Cl].[NH-]c1ccc(C(=O)c2ccccc2)cc1[NH-]`, for which the T/C under setting [10] is 109 % of control and 107 % of control; the T/C (dose: 40.0 mg/kg/injection, vehicle: saline with Tween-80) is 114 % of control and 116 % of control; the T/C (dose: 80.0 mg/kg/injection, vehicle: saline with Tween-80) was 112 % of control and 115 % of control; the T/C (dose: 160.0 mg/kg/injection, vehicle: saline with Tween-80) was 116 % of control; the T/C (dose: 320.0 mg/kg/injection, vehicle: saline with Tween-80) is 110 % of control and 121 % of control.

With `O=C(O)CNC(=O)C(Cc1ccccc1)NC(=O)OCc1ccccc1` (centres undefined) (HELM PEPTIDE1{[O=C(OCc1ccccc1)[*:2]].[O=C(C(Cc1ccccc1)N[*:1])[*:2]].G}$$$$V2.0), the T/C under setting [11] was 94 % of control; the T/C under setting [12] is 102 % of control; the T/C under setting [7] was 86 % of control and 94 % of control.

In the case of `COC(=O)C[C@](O)(CCC(C)(C)O)C(=O)O[C@@H]1C(OC)=C[C@]23CCCN2CCc2cc4c(cc2[C@H]13)OCO4`, the T/C is, setting by setting: (dose: 0.25 mg/kg/injection, vehicle: saline) 124 % of control; (dose: 0.5 mg/kg/injection, vehicle: saline) 154 % of control and 161 % of control; (dose: 1.0 mg/kg/injection, vehicle: saline) 161 % of control and 168 % of control; (dose: 2.0 mg/kg/injection, vehicle: saline) 168 % of control.

`COc1cc(C2c3cc4c(cc3C(OC3CCCCO3)C3COC(=O)C23)OCO4)cc(OC)c1OC` (centres undefined): the T/C is 93 % of control (dose: 1.56 mg/kg/injection, vehicle: Klucel (hydroxypropylcellulose) (HPC)) and 98 % of control (dose: 3.12 mg/kg/injection, vehicle: Klucel (hydroxypropylcellulose) (HPC)).

For the compound `CNc1cccnc1/C=N/NC(N)=S`, the T/C is, setting by setting: under setting [6], 119 % of control; under setting [1], 159 % of control; under setting [2], 151 % of control.

In the case of `Cc1ccc(NN=O)nc1`, the T/C under setting [13] is 114 % of control; the T/C under setting [14] was 120 % of control; the T/C (dose: 1.56 mg/kg/injection, vehicle: water) is 112 % of control; the T/C under setting [15] was 120 % of control; the T/C under setting [16] is 124 % of control.

With `COc1ccc(NC(=O)Oc2ccc3c(C)cc(=O)oc3c2)c(OC)c1`, the T/C under setting [9] was 99 % of control; the T/C under setting [1] was 94 % of control; the T/C under setting [2] was 99 % of control; the T/C under setting [17] is 100 % of control; the T/C (dose: 400.0 mg/kg/injection, vehicle: saline with Tween-80) was 98 % of control.

Consider `CC(C)(C)OC(=O)NCCCCC(NC(=O)OC(C)(C)C)C(=O)O` (centres undefined), for which the T/C is 97 % of control under setting [1], 104 % of control under setting [2] and 95 % of control under setting [17].

In the case of `COC1=CC(=O)c2c(O)cc(OC)c(O)c2C1=O`, the T/C was 105 % of control under setting [18], 121 % of control under setting [19], 121 % of control under setting [20] and 121 % of control under setting [21].

Take `CCCCCNc1ncnc2c(C)[nH]nc12`: the T/C was 100 % of control under setting [11], 91 % of control under setting [12] and 86 % of control under setting [7].

On to `CCCC(NC(=O)OCc1ccccc1)C(=O)NC(CC(C)C)C(N)=O` (centres undefined) (Cbz-[Nva]-Leu-NH2; configuration not given here), for which the T/C is, setting by setting: under setting [7], 98 % of control; under setting [8], 94 % of control; (dose: 400.0 mg/kg/injection, vehicle: Klucel (hydroxypropylcellulose) (HPC)) 97 % of control.

Turning to `NC(N)=NC(N)=Nc1ccc(-c2ccc(N=C(N)N=C(N)N)cc2)cc1`, the T/C under setting [3] is 98 % of control; the T/C under setting [4] is 107 % of control; the T/C (dose: 3.13 mg/kg/injection, vehicle: saline with Tween-80) was 90 % of control; the T/C under setting [5] is 106 % of control; the T/C under setting [6] was 93 % of control.

Take `CSc1cc(=O)n2c3ccccc3c3ccnc1c32`: the T/C by setting is: (dose: 0.62 mg/kg/injection, vehicle: saline with Tween-80) 96 % of control; under setting [18], 101 % of control; under setting [19], 105 % of control; under setting [20], 109 % of control; under setting [21], 114 % of control.

As for `O=NNc1cnccn1`, the T/C was 120 % of control and 103 % of control and 106 % of control (dose: 3.12 mg/kg/injection, vehicle: water); 109 % of control and 110 % of control and 114 % of control (dose: 6.25 mg/kg/injection, vehicle: water); 113 % of control (dose: 12.5 mg/kg/injection, vehicle: water); 155 % of control and 158 % of control and 169 % of control (dose: 25.0 mg/kg/injection, vehicle: water); 96 % of control (dose: 50.0 mg/kg/injection, vehicle: water).

With `NC(CCCNc1cccc(O)c1)C(=O)O` (centres undefined), the T/C runs as follows: (dose: 75.0 mg/kg/injection, vehicle: saline) 104 % of control; (dose: 100.0 mg/kg/injection, vehicle: saline) 87 % of control.

In the case of `Cn1cc(C2NC(=O)c3ccccc3N2)c2ccccc21` (centres undefined), the T/C is, setting by setting: under setting [11], 109 % of control and 96 % of control; under setting [12], 115 % of control and 106 % of control; under setting [7], 123 % of control.

`Cc1cccc(Nc2c(N)nc(N)nc2N)c1`: the T/C reads like this: under setting [12], 102 % of control; (dose: 75.0 mg/kg/injection, vehicle: Klucel (hydroxypropylcellulose) (HPC)) 99 % of control.

As for `CN1CCN(c2ccc([N+](=O)[O-])c3no[n+]([O-])c23)CC1`, the T/C reads like this: under setting [19], 101 % of control; under setting [20], 111 % of control; under setting [10], 95 % of control.

`CC(C)(C)Oc1ccc(CC(NC(=O)OCC2c3ccccc3-c3ccccc32)C(=O)O)cc1` (centres undefined): the T/C is 107 % of control under setting [12], 108 % of control under setting [7] and 105 % of control under setting [8].

Regarding `COc1cccc2c1C(=O)c1c(O)c3c(c(O)c1C2=O)CC(O)(/C(C)=N/NC(=O)CCC(=O)N/N=C(\C)C1(O)Cc2c(O)c4c(c(O)c2C(OC2CC(N)C(O)C(C)O2)C1)C(=O)c1c(OC)cccc1C4=O)CC3OC1CC(N)C(O)C(C)O1` (centres undefined), the T/C was 171 % of control under setting [13]; 171 % of control and 195 % of control under setting [14]; 202 % of control and 242 % of control under setting [15]; 250 % of control and 256 % of control under setting [16]; 320 % of control (dose: 12.0 mg/kg/injection, vehicle: water).

As to `Nc1nc(SCc2ccccc2Cl)c2ncn(C3OC(CO)C(O)C3O)c2n1` (centres undefined), the T/C under setting [6] was 106 % of control and the T/C under setting [9] was 90 % of control.

These data come from PubChem BioAssay AID200 (DTP/NCI, 2004).
